Data on 4 molecules can be found in patent US9868722B2, “Monocyclic pyrimidine/pyridine compounds as inhibitors of P97 complex” (Cleave Biosciences, Inc., priority 2013, dated 2018).

One series deals with Caco-2 cell monolayers. Particulars: pH 7.4, range over 12 inter-day experiments.
The target in the next series is p97 (Homo sapiens, UniProt P55072). Put plainly: P97 ATPase biochemical assay (ADP Glo). Particulars: 20 nM p97, 20 uM ATP, 37 degC 15 min. How it is done:
The ATPase assay is performed according the following protocol: Purified enzyme (20 nM p97), substrate (20 μM ATP) and a dose titration of compounds are mixed in buffer (50 mM TRIS pH 7.5, 20 mM MgCl2, 0.02% TX-100, 1 mM DTT, 0.2% (v/v) glycerol) and incubated at 37° C. for 15 minutes. The reaction is terminated and the level of product generated is measured using the ADP Glo Assay Kit (Promega, Madison Wis.). Plotting product generated versus compound concentration and using a four-parameter fit model generates an IC50 value for each compounds.
The p97 assay is an initial screening assay used to determine inhibitory activity of the monocyclic pyrimidine compounds of the invention against the p97 complex. As discussed above, inhibition of activity of the p97 proteosome complex can enable apoptosis and cause elimination of neoplastic cells (cancer cells). The method follows that of Christianson in Nat. Cell Biol., (2011) 14:93.
Assay Buffer is a mixture of 50 mM TRIS pH 7.5, 20 mM MgCl2, 0.02% TX-100, 1 mM DTT and 0.2% (v/v) Glycerol. The well plate is Platetype: Corning 3674, 384w plate. The identification kit is an ADP glo kit (Promega): stop buffer, detection reagent.
Serial dilute compound in DMSO in a 1:3.33-fold 10 point serial dilution.
0.5 μL compound serial diluted in DMSO (Final Conc. 10%)
2 μL ATP (Final Conc.=20 uM, diluted in assay buffer)
2.5 μL p97 (Final Conc.=20 nM, diluted in assay buffer)
Incubate at 37 degC for 15 min.
Add 5 μL of stop buffer, incubate at RT for 40 min.
Add 10 μL of detection reagent, incubate at RT for 30 min.
Read luminescence on Envision plate reader. • Upon obtaining the data from the luminescence reading, the data may be analyzed as follows:
Normalize luminescence data using no enzyme (full inhibition) and no compound (no inhibition) controls. Plot normalized luminescence data against log-transformed concentration values and fit to a sigmoidal curve to determine IC50 values (done in Collaborative Drug Discovery software).
The results are reported on the following Table for Examples A-EE and the E1-E4 compounds as 50 percent Inhibitory concentration at candidate doses of less than 30 nM, less than 100 nM, less than 300 nM and less than 1000 nM for the p97 inhibition assay.

The test system of another series is A549 cells. Put plainly: Cultured cancer cell viability assay (cell titer glo, A549 CTG). It counts as cell-based. Particulars: Homo sapiens; A549 cells, 72 hr incubation, cell titer glo; read-out: A549 CTG IC50. From the text: Anti-tumor effects are monitored in cultured cancer cells after several days of compound treatment. The cell titer glo assay (Promega) measures the amount of ATP present as a proxy for cellular viability. Cellular counting is done using high-content microscopy followed by image analysis. A hanging drop 3D-culture system (3D Biomatrix) is used followed by cell titer glo to measure growth in a tumor-like environment.
The cellular assay provides information about the anti-neoplastic activity of the compounds of the invention. The compounds are tested against cultured cancer cells to determine whether or not the compounds of the invention are capable of intersecting with cancer cells to minimize or eliminate such cells. The assay involves establishing colonies of such cells and then treating them with the test compound under specified conditions and analysis regime to determine results.
(§1) Plate 25 μL of A549 cells in every well of 384-well plate using multidrop.
One (1) white plate for viability at 500 cells/well.
Serial dilute compounds with a 10 point 2-fold serial dilution in DMSO to make 250× stock compound solution
Dilute compounds 1:125 in cell culture media to make a 2× solution Add 25 μl of dilution compounds to cell plates in well duplicates
Put cells back in incubator (6 hr incubation for black plates, 72 hr incubation for white plates).
Thaw an aliquot of frozen cell titer glo (Promega G7572) at room temperature.
Add 45 mL of NaCl/PBS solution to 5 ml of cell titer glo (10×).
Remove white plates from incubator, leave at room temp for 30 minutes.
Add 25 μl of diluted cell titer glo to each well.
Shake plate for >1 minute.
Incubate plate for >5 minutes to stabilize luminescence. • Luminescence is stable for up to 3 hours.
Read luminescence on plate reader
The results are reported on the following Table I for Examples A-EE and the E1-E4 compounds as 50 percent Inhibitory concentration at candidate doses of less than 1 μM, less than 3 μM and less than 10 μM for both of the K48 antibody and the p53 (CTG) antibody assays
(In general: ATP-based viability assays read luminescence as a measure of living cells.)

Series [1] has as its system K48 poly-Ubiquitin accumulation in A549 cells. Kind of series: A549 K48 poly-ubiquitin accumulation immunofluorescence assay. It counts as cell-based. The note with it: Homo sapiens; A549 cells, 6 hr incubation, K48-Ub antibody; read-out: A549 K48 IC50. The method, then: Image-analysis is used to generate quantitative data from these assays that can be fit to a four-parameter sigmoid curve to derive IC50 values. Substrates of the ubiquitin-proteasome system, such as p53, are monitored after tumor cell lines are incubated with compounds for several hours. Accumulation of these proteins indicates an inhibition of proteasome-mediated degradation. Accumulation of lysine-48 chain linkage of poly-ubiquitin is also monitored by immunofluorescence as an indicator of ubiquitin-proteasome system inhibition. Both LC3 and SQSTM1 are mediators of autophagy. The localization and amounts of these proteins are monitored by immunofluorescence and report on the activity and inhibition of autophagy in response to p97 inhibition.
as §1
Two (2) black plates for IF at 2500 cells/well
Serial dilute compounds with a 10 point 2-fold serial dilution in DMSO to make 250× stock compound solution Dilute compounds 1:125 in cell culture media to make a 2× solution Add 25 μl of dilution compounds to cell plates in well duplicates Put cells back in incubator (6 hr incubation for black plates, 72 hr incubation for white plates).
Incubate cells in black plates with compound at 37 degC for 6 hrs. add 15 μL of 16% Paraformaldehyde (PFA) directly into media of each well, incubate at room temp for 5 min, flick plate and wash in 50 μL of PBS block in 50 μL of Blocking Buffer for 30 minutes (can go up to several hours) Blocking buffer: 1×PBS, 1% BSA, 0.3% Triton-X100, Hoechst (1:10,000) incubate in 25 μL of primary antibody in blocking buffer at 4 degC over night […]
Secondary Antibodies: • AlexaFluor488 Goat anti-Rabbit 1:2,000 (Life Tech A11008) • AlexaFluor555 Goat anti-Mouse 1:2,000 (Life Tech A21422) incubate in 25 μl of secondary antibody (1:2,000) in blocking buffer for 1-2 hrs at room temp (alexafluor488-anti-Rabbit/alexafluor555-anti-Mouse) Image plates in high content microscope with 405 nm, 488 nm and 555 nm filters Nuclear counts and cellular intensities of each markers are measured using Hoechst as a nuclear marker with an automated image analysis protocol using Matlab software (Math Works) The results are reported on the following Table I for Examples A-EE and the E1-E4 compounds as 50 percent Inhibitory concentration at candidate doses of less than 1 μM, less than 3 μM and less than 10 μM for both of the K48 antibody and the p53 (CTG) antibody assays

SMILES strings stand for the structures. pIC50: −log10 of the molar value.

Chain of p97 (P55072 whole entry): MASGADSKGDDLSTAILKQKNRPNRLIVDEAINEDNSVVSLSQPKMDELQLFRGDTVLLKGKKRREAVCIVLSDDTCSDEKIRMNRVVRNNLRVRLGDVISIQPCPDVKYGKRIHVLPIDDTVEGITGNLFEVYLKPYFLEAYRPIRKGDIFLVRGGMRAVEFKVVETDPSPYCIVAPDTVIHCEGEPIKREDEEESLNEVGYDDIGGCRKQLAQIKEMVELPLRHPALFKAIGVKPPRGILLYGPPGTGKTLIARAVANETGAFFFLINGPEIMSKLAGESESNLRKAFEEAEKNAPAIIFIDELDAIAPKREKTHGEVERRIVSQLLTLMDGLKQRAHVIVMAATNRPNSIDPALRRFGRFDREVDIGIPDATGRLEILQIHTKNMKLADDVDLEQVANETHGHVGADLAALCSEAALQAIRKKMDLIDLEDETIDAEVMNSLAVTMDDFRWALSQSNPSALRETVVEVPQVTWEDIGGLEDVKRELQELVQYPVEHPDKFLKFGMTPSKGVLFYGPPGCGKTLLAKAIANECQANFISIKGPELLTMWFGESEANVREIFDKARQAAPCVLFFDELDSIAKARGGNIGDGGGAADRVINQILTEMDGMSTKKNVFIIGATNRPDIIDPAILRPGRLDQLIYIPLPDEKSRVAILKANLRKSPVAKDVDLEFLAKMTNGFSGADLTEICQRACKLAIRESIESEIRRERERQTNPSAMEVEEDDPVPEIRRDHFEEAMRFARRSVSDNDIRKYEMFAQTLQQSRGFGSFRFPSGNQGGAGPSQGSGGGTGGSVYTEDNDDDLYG

As to `CC(C)NCC(O)COc1cccc2ccccc12` (centres unmarked) [Propranolol], in the series with Caco-2 cell monolayers (A to B), the “Peff (×E-6 cm/sec) in pH 7.4 Caco-2, A B, Range” value was 18.50-36.80 ×E-6 cm/sec. The “Peff (×E-6 cm/sec) in pH 7.4 Caco-2, B A, Range” value in the series with Caco-2 cell monolayers (B to A) is on record as 16.30-31.40 ×E-6 cm/sec.
The term pIC50 denotes the negative decadic logarithm of the IC50, by convention in mol/L. As for `Cc1cc2c(C(N)=O)cccc2n1-c1ncc(C(C)O)c(NCc2ccccc2)n1` (centres unmarked) [Example 34, 1-[4-(benzylamino)-5-(1-hydroxyethyl)pyrimidin-2-yl]-2-methyl-1H-indole-4-carboxamide], the values for the pIC50 (on p97; with A549 cells; in series [1]) were above 7.52, above 5.52 and above 5.52, respectively.
For `Cc1cc2c(C(N)=O)cccc2n1-c1ncc(C(F)(F)F)c(NCc2ccccc2)n1` [Example 4, 1-[4-(benzylamino)-5-(trifluoromethyl)pyrimidin-2-yl]-2-methyl-1H-indole-4-carboxamide], the pIC50 was above 7.52 on p97, above 5.52 in the series with A549 cells and above 5.52 in series [1].
`COc1c(C)nc(-n2c(C)cc3c(C(N)=O)cccc32)nc1NCc1ccccc1` [Example 7, 1-[4-(benzylamino)-5-methoxy-6-methylpyrimidin-2-yl]-2-methyl-1H-indole-4-carboxamide]: the pIC50 on p97 is above 7.52; with A549 cells, above 5.52; in series [1] it was above 5.52.
